Each block holds one compound with its values, some of them ahead of it. The source made the active and inactive calls. No cut-off for these calls is given here.
Key:
[1] = molecular target: T1, DNA excision repair protein ERCC-1/DNA repair endonuclease XPF (Homo sapiens, UniProt P07992+Q92889); assay: Inhibition of human His-tagged human ERCC1-XPF expressed in Escherichia coli BL21 (DE3) cells using 6-FAM-5'CAGCGCTCGG(20T)CCGAGCGCTG-3'-dabcyl measured for 12 mins by fluorescence incision assay
T1 sequence (P07992 whole entry): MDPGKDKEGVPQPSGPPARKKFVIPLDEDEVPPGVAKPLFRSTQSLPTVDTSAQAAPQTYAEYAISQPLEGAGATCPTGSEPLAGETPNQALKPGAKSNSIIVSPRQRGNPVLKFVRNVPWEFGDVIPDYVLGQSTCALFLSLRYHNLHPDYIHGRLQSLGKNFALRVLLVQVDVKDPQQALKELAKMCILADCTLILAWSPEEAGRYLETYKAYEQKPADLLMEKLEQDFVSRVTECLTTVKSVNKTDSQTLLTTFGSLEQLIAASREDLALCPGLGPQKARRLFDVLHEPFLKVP
T1 sequence (Q92889 whole entry): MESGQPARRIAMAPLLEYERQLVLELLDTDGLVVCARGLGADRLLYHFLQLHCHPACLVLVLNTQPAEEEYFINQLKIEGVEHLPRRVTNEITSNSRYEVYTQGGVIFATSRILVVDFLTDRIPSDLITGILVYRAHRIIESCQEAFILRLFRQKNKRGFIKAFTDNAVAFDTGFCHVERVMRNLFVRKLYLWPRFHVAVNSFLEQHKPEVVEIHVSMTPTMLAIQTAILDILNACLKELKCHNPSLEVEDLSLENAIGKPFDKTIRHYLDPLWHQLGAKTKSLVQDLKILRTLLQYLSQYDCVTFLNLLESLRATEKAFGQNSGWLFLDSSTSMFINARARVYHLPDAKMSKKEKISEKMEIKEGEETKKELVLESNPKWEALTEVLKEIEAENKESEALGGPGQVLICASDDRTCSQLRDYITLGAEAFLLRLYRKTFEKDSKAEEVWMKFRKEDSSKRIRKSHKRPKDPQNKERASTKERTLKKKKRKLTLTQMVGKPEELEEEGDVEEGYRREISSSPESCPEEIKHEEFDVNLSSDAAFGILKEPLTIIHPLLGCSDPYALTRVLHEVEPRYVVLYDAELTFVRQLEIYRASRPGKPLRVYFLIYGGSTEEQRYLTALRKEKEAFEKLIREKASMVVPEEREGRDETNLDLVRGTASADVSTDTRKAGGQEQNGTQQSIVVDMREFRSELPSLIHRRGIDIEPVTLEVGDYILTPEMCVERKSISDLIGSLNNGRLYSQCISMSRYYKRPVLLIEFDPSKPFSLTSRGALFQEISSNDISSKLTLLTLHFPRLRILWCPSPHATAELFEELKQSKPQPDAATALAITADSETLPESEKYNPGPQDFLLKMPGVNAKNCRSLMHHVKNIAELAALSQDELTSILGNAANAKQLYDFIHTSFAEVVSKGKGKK

[2] = molecular target: T1, DNA excision repair protein ERCC-1/DNA repair endonuclease XPF; assay: Binding affinity to His-tagged human ERCC1-XPF expressed in Escherichia coli BL21 (DE3) cells by steady-state fluorescence assay
[3] = Binding affinity to 6-FAM-5'CAGCGCTCGG(20T)CCGAGCGCTG-3'-dabcyl (unknown origin) measured for 12 mins by fluorescence incision assay
[4] = molecular target: T2, DNA excision repair protein ERCC-1/DNA repair endonuclease XPF (Homo sapiens) (UniProt P07992+Q92889); assay: Inhibition of human His-tagged ERCC1-XPF expressed in Escherichia coli BL21 (DE3) cells using 6-FAM-5'CAGCGCTCGG(20T)CCGAGCGCTG-3'-dabcyl at 10 uM measured for 12 mins by fluorescence incision assay
[5] = molecular target: T2, DNA excision repair protein ERCC-1/DNA repair endonuclease XPF (Homo sapiens); assay: Binding affinity to His-tagged human ERCC1-XPF expressed in Escherichia coli BL21 (DE3) cells at 4 uM by steady-state fluorescence assay relative to control
[6] = molecular target: T2, DNA excision repair protein ERCC-1/DNA repair endonuclease XPF (Homo sapiens); assay: Inhibition of ERCC1-XPF in UV-radiated human HCT-116 cells assessed as cyclobutane pyrimidine dimer DNA repair at 2 uM preincubated for 1 hr followed by 8 J/m2 UV-C radiation and measured up to 24 hrs by IgG-Alexafluor antibody based fluorescent microscopic analysis (reference value: 16%); type: cell-based; design: scale not given: the % may be the effect or the level left; conditions: time hrs <=25
HCT-116 [7] = assay: Cytotoxicity against human HCT-116 cells assessed as reduction in cell viability at 2 uM after 3 days relative to control; type: cell-based; conditions: hct-116, 72 h, time 3 day
HCT-116 [8] = assay: Antiproliferative activity against human UV-radiated HCT-116 cells assessed as sensitizing capacity by measuring reduction in cell survival at 2 to 4 uM by clonogenic survival assay; type: functional, cell-based; conditions: dose 2-4 µM
HCT-116 [9] = assay: Antiproliferative activity against human HCT-116 cells assessed as sensitizing capacity by measuring reduction in cell survival at 2 uM in presence of cyclophosphamide by clonogenic survival assay; type: functional, cell-based
HCT-116 [10] = assay: Cytotoxicity against human HCT-116 cells assessed as reduction in cell viability at >= 5 uM after 3 days; type: cell-based; conditions: hct-116, 72 h, time 3 day
[11] = Cytotoxicity against human HCT-116 cells assessed as cell viability at 5 uM after 3 days relative to control; type: cell-based; conditions: time 3 day, read-out: Activity
HCT-116 [12] = assay: Antiproliferative activity against human UV-radiated HCT-116 cells assessed as sensitizing capacity by measuring reduction in cell survival at 2 uM by clonogenic survival assay; type: functional, cell-based
HCT-116 [13] = assay: Cytotoxicity against human HCT-116 cells assessed as reduction in cell viability at 5 to 20 uM after 3 days; type: cell-based; conditions: hct-116, 72 h, dose 5-20 µM, time 3 day
HCT-116 [14] = assay: Antiproliferative activity against human HCT-116 cells assessed as sensitizing capacity by measuring reduction in cell survival at 4 uM in presence of cyclophosphamide by clonogenic survival assay; type: functional, cell-based

IC50 [1]: 490 nM
Kd [2]: 85 nM
inhibition [4]: Active
Activity [5]: 25%
Activity [6]: 35%
SMILES: CN(C)CCN1CCN(Cc2cc(Nc3c4ccc(Cl)cc4nc4ccc(O)cc34)ccc2O)CC1
Kd [3]: 1050 nM
Activity (HCT-116 [7]): 95%
Activity (HCT-116 [8]): Active
Activity (HCT-116 [9]): Active

Kd [2]: 140 nM
inhibition [4]: Active
SMILES: COc1ccc2nc3cc(Cl)ccc3c(Nc3ccc(O)c(CN4CCN(C)CC4)c3)c2c1
Activity (HCT-116 [10]): Toxic
viability at 72 h, 5 µM [11]: 35%
Activity (HCT-116 [12]): Active

inhibition [4]: Active
SMILES: Oc1ccc2nc3cc(Cl)ccc3c(Cl)c2c1

inhibition [4]: inactive
SMILES: COc1ccc2nc3cc(Cl)ccc3c(Cl)c2c1

inhibition [4]: Active
SMILES: COc1ccc2c(Nc3ccc(O)c(CN(C)C)c3)ccnc2c1

inhibition [4]: Active
SMILES: COc1cc(C#N)c(Nc2c3ccc(Cl)cc3nc3ccc(O)cc23)cc1OC

inhibition [4]: Active
Activity [5]: < 2%
SMILES: CN1CCN(Cc2cc(Nc3c4ccc(Cl)cc4nc4ccc(OCc5ccccc5)cc34)ccc2O)CC1
Kd [3]: 200 nM
Activity (HCT-116 [13]): Non-Toxic
Activity (HCT-116 [14]): inactive

inhibition [4]: Active
SMILES: COc1ccc2c(Nc3ccc(O)c(CN4CCN(CCN(C)C)CC4)c3)ccnc2c1

inhibition [4]: inactive
SMILES: CN1CCN(Cc2cc(N)ccc2O)CC1

inhibition [4]: inactive
SMILES: COc1ccc2c(Nc3ccc(O)cc3)ccnc2c1

inhibition [4]: Active
SMILES: CN1CCN(Cc2cc(Nc3c4ccc(Cl)cc4nc4ccc(O)cc34)ccc2O)CC1

inhibition [4]: inactive
SMILES: COc1ccc2c(Cl)ccnc2c1
